Test results from patent US20090054507A1, “CONTROL OF MALIGNANT CELLS BY KINASE INHIBITION” (CLEVELAND STATE UNIVERSITY, priority 2006, published 2009).

How the values were obtained:
MEG-01 cells [1] = assay: Annexin V-FITC and PI apoptosis assay, MEG-01; type: cell-based, human
Method: (§1) Flow cytometric analysis. Cells were analyzed using a FACSCalibur flow cytofluorometer (Becton-Dickinson), with CellQuestPro ver. 3.3 software. The data was further analyzed with FlowJo ver. 6.2, and WinMDI 2.8 software. Proper gating was performed to characterize each cell population (MEG-01 cells and platelets). The population that corresponds to platelets (small, granulated particles), is PI negative because thrombocytes are anucleated cells (only the viable cells were considered) and were distinguished by their capacity to become activated, undergoing shape change in response to agonist and to show phosphatidylserine (PS) exposure when activated. Platelets were further separated from the megakaryocytic cells, by differential centrifugation, considering the size difference between these cell populations (1-5 μm for platelets and 35-150 μm for megakaryocytic cell line MEG-01) and analyzed separately. Voltage and channels settings were adjusted accordingly. Analyzed values were obtained with WinMDI ver. 2.8.
(§2) Apoptosis Assays using Flow Cytometry with Annexin V-FITC and propidium iodide (PI). For induction of typical apoptosis, cells were grown in the presence of 1 μM staurosporine (Sigma-Aldrich) for 6 hours. The staurosporine treated cells were stained as follows: control 1 with PI, control 2 with Annexin V-FITC and control 3 both PI and Annexin V-FITC in order to have the brightest controls for compensation and proper collection of the flow cytometry data. Cell necrosis was induced by heat shock (65° C. for 30 minutes). The stained control, both PI and Annexin V-FITC labeled, was then used as the reference in establishing the level of apoptosis induced by the treatments. Data was collected on logarithmic modes, two-colors. Annexin V-FITC corresponds to FL1 H channel, and PI to FL3H or FL2H channels.
(§3) Annexin V-FITC and PI apoptosis assay staining protocol. Apoptosis Annexin V-FITC and PI kit from BD Biosciences, CA, USA, was used. 10^5-10^6 cells were stained with 50 μg/ml PI and with 0.5 μg/ml FITC-labeled Annexin V using the staining protocol provided by the supplier. Samples were then analyzed immediately by flow cytometry.

SW-480 cells = assay: Anchorage independence in soft agar, SW-480; type: cell-based, human; details: DMAT 10 μM, one week
[2] = 25 mg/kg twice daily, injections in mice; cited from earlier work
tumor tissue and organs = assay: Hematoxylin & eosin staining of tumor tissue and organs of treated xenograft mice (all cell lines); type: in vivo
Method: (§4) Hematoxylin & eosin staining of tumor tissue and organs. After euthanasia with CO2, mice were supposed to necropsy. Tumors were collected from under the skin from both flanks and were measured for the last time and then fixed in formalin fixative. Spleen, liver, kidney, brain, lungs and legs were collected and fixed. Spleens were also measured (as length, […]). Fresh tissue was immersed immediately into liquid nitrogen and kept frozen at −80° C. Fixed tissue was embedded in paraffin and next processed for H&E (the basic dye hematoxylin, and the alcohol-based synthetic material, eosin) by the Cleveland Clinic Histology Core facility. Sections (4-μm thick) were stained with hematoxylin and eosin and evaluated for pathologic changes in a blinded fashion. H&E staining gives morphological information (vascularization, normal proliferating tissue, necrosis and apoptosis of the tissue).

MEG-01 tumors = assay: Hematoxylin & eosin staining of MEG-01 tumors; type: in vivo, mice; set-up: dose or concentration left out as unconfirmed; details: DMAT treated vs control
Method: as §4

MEG-01 cells [3] = assay: RPE-CD41a (αIIbβ3 integrin) flow cytometric immunophenotyping, maturation of MEG-01; type: cell-based, human; details: 10 μM DMAT vs control untreated
Method: as §1
RPE-CD41a immunophenotyping of MEG-01 cells. CD41a is the antigen for αIIbβ3 complex and it is found on platelets and platelet precursors, including MEG-01 cell line. αIIbβ3 complex is a marker of differentiation for megakaryocytes. […] Cells were counted and adjusted to 10^6 cells/ml and 20 μl of RPE-CD41a was used for 180 μl cell suspension. […]

WM-164 cells = assay: Annexin V apoptosis/necrosis assay, WM-164; type: cell-based, human
Method: as §2, §3

tumors of HT1376 cells = assay: Murine xenograft of HT1376 cells, tumor volume; type: in vivo, mice; details: DMAT at effective dosage levels (in DMSO) per animal per day, 36 days
Method: FIG. 95 illustrates the effect of administration of DMAT s compared to a control over a time period of 36 days. FIG. 95 is a graph of a murine xenograft treated with DMAT, compared to a control. Mice with tumors of HT1376 cells were treated with DMAT at effective dosage levels (in DMSO) per animal per day. The daily animal weight was averaged at 32.5 g at the start of treatment. Tumors were measured daily and tumor volumes were calculated based upon a prolate spheroid model. FIG. 95 illustrates the significant benefits of treatment with DMAT (circles) as compared to the control (squares). Although the tumor size increased for HT1376 cells treated with DMAT, the tumor volume remained approximately one-half of the size as that associated with the untreated HT1376 cells.

CN(C)c1nc2c(Br)c(Br)c(Br)c(Br)c2[nH]1 [DMAT, 2-dimethylamino-4,5,6,7-tetrabromo-1H-benzimidazole]
cytotoxicity (necrosis) in MEG-01 cells (MEG-01 cells [1]): without being cytotoxic
level of necrotic cells (MEG-01 cells [1]; 20 μM DMAT, 24 hours, control untreated 0.87%): 0.39%
level of apoptotic cells (MEG-01 cells [1]; 20 μM DMAT, 24 hours, control untreated 8.7%): 19%
dose and time dependence of induced apoptosis and phenotype change (MEG-01 cells [1]; 24 to 96 hours): dose and time dependent
colonies in soft agar (SW-480 cells): much smaller and fewer colonies
effect on the kidney, bone marrow, and liver as assessed histologically [2]: had no effect
necrotic and apoptotic areas of tumors from treated mice vs untreated (DMSO) control tumors (tumor tissue and organs; all tumors, hematoxylin-eosin staining): high necrotic and apoptotic areas
other organs of treated mice, hematoxylin-eosin staining (tumor tissue and organs; mouse, in vivo): appeared normal
apoptotic-necrotic areas in tumors (hematoxylin and eosin) (MEG-01 tumors): significantly greater areas of apoptosis and necrosis
maturation level (αIIbβ3 integrin expression, RPE-CD41a) (MEG-01 cells [3]): significant maturation levels
level of necrotic cells (WM-164 cells; 10 μM DMAT, 24 hours, control 4.8%): 2.0%
level of apoptotic cells (WM-164 cells; 10 μM DMAT, 24 hours, control 16.9%): 36.8%
level of apoptic cells (WM-164 cells; 20 μM DMAT): 26.8%
level of necrotic cells (WM-164 cells; 20 μM DMAT): 4.1%
tumor volume relative to untreated HT1376 cells (tumors of HT1376 cells): approximately one-half
